Experimental data taken from article PMC11048566, “The Development of a Regulator of Human Serine Racemase for N-Methyl-D-aspartate Function” (Biomedicines, 2024).

Experiments:
SR [1] = assay: D-serine and L-serine levels in cerebral cortex and plasma after IV DMM (LC-MS/MS); type: in vivo, C57BL/6J male mice; conditions: 400 mg/kg DMM IV, 30 min after administration, vs vehicle, n = 3
Description: For the determination of DAA concentration, C57BL/6J male mice received 50, 100, 200, and 400 mg/kg DMM (TGI, Tokyo, Japan) IV, and the mice were euthanized 30 min later. Cerebral cortex and plasma samples (n = 3 − 9) were collected and stored at −80 °C until the time of analysis. The brain tissues were weighed and homogenized on ice with 5-fold volumes of 1000 ng/mL tolbutamide (internal standard, IS, Sigma-Aldrich, St. Louis, MO, USA)) in methanol (Merck KGaA, Darmstadt, Germany). The plasma was combined with 4-fold volumes of 1250 ng/mL IS in methanol and vortexed for 2 min. The homogenates were centrifuged at 12,000× g […] for 10 min at 4 °C in an Eppendorf 5417R centrifuge (Eppendorf, Hamburg, Germany). The supernatant was passed through a 0.22 μm filter (Merck KGaA, Darmstadt, Germany) and analyzed by liquid chromatography–tandem mass spectrometry (LC-MS/MS) using the following method: An Agilent 1260 LC quaternary pump with an Agilent 1260 LC infinity autosampler and an Agilent 1100 column oven (Marshall Scientific, Hampton, NH, USA) were used to inject the samples onto an Astec Chirobiotic column (5 μm, 250 × 4.6 mm I.D., Sigma-Aldrich, St. Louis, MO, USA). The mobile phase was a 20/80 mixture of mobile phase A (0.1% formic acid (Sigma-Aldrich, St. Louis, MO, USA) in ddH2O) and mobile phase B (0.1% formic acid in acetonitrile), and the run was isocratic at a flow rate of 0.3 mL/min. Quantitation was achieved by MS/MS detection in positive ion multiple reaction monitoring (MRM) mode for analyte and IS using an AB SCIEX 3200 triple quadrupole ion trap mass spectrometer (AB Sciex, Framingham, MA, USA). The parameters for curtain gas, ion spray voltage, temperature, ion source gas 1, and ion source gas 2 were 10 psi, 5000 V, 550 °C, 35 psi, and 30 psi, respectively. AB SCIEX Analyst® (version 1.6.3, AB Sciex, Framingham, MA, USA) software was used for system control and data processing. To investigate the regulation of racemization by hSR, we applied DMM, the pro-drug of malonate, to C57BL/6J male mice. The mice were euthanized 30 min after the administration. The cerebral cortex and plasma were harvested and analyzed by LC-MS/MS to quantify D-serine and L-serine levels after the treatment with DMM (Figure 1). […] L-serine levels were also raised in the cerebral cortex 1.44 times (p < 0.001; n = 3; Student’s t-test) and in plasma 1.55 times (p < 0.05; n = 3; Student’s t-test).

[2] = target: D-amino acid oxidase (DAAO) (Homo sapiens, UniProt P14920); assay: DAAO enzymatic assay; type: biochemical
Description: A reaction mixture for the DAAO assay, with a final volume of 100 µL was made with 1 µL 2 times serially diluted α12G (4 µM to 7.8 nM), 45 µM FAD, 10 units of HRP, 60 ng DAAO, 10 mM Amplex Red^TM, 5 mM D-serine, and 100 mM Tris HCl (pH = 8.5). All reactions were performed in duplicates. The fluorescence was detected by a fluorometric meter (TECAN Infinite 200). The racemization percentage was calculated as follows: activity % = (Fsample, 20 min − Fsample, 0 min)/(Fblank, 20 min − Fblank, 0 min) × 100%.

SR [3] = conditions: two-step enzymatic assay; read-out: IC50 of SR inhibition; cited from earlier work
[4] = target: T1, human serine racemase (hSR) (Homo sapiens, UniProt Q9GZT4); assay: Two-step enzymatic assay of hSR racemization (hSR, then DAAO/HRP/Amplex Red); type: biochemical; conditions: within the physiological range of ATP concentration
T1 construct: 6xHis (C); made in house; host or cells: E. coli BL21 (pET42b-hSR)
T1 sequence (Q9GZT4 1-340): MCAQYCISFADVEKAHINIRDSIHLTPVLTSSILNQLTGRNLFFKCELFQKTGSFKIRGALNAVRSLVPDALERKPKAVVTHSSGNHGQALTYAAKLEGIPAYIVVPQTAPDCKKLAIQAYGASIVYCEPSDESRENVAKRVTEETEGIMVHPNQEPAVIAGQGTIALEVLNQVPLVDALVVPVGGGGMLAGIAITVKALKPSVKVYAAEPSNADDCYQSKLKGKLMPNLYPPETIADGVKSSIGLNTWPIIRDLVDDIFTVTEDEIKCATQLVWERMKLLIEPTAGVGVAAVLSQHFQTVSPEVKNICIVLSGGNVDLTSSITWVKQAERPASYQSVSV
Description: This assay was designed by the formation of D-serine by hSR and the oxidation of D-serine by D-amino acid oxidase (DAAO) and horseradish peroxidase (HRP) with the peroxidase substrate Amplex Red^TM (10-acetyl-3,7-dihydroxyphenoxazine) (Thermo Fisher Scientific, Lagoas Park, Porto Salvo, Portugal). The hSR activity assay reaction was carried out in 100 mM HEPES buffer, pH 8.0, containing 2.4 µg of hSR protein, 50 µM PLP, 1 mM MgCl2, 0.25 mM ATP, 400 mM L-serine, and 2 times serially diluted α12G (8 mM to 0.2 µM). Compound-free wells were used as blank controls in the assay. All reactions were performed in duplicates. The reaction mixtures were incubated at 37 °C for 4 h. The reaction was stopped by heating the reaction mixtures at 95 °C for 10 min and storage at 4 °C. A reaction mixture for the second-step enzymatic assay, DAAO assay, with a final volume of 100 µL was made with a 10 µL sample from hSR assay, 45 µM FAD, 10 units of HRP, 60 ng DAAO, 10 mM lead acetate, 10 mM Amplex Red^TM, and 100 mM Tris HCl (pH = 8.5). Lead acetate was used to conjugate α12G as the latter would inhibit the DAAO function in the fluorometric assay, leading to an […] of the effects of α12G on hSR. The fluorescence was detected by the TECAN Infinite 200 Microplate Reader (GMI, MN, USA). The racemization percentage was calculated as follows: racemization % = (Fsample, 20 min − Fsample, 0 min)/(Fblank, 20 min − Fblank, 0 min) × 100%. […] The two-step enzymatic assay described in Section 2.3 was designed by the formation of D-serine by hSR and the consequent oxidation of D-serine by DAAO. The inhibition of DAAO, which also degrades D-serine, by α12G will lead to overestimating the effects of racemization by hSR. […] Therefore, lead acetate was applied to conjugate α12G for the determination of racemization. […] On the contrary, when the concentration of α12G is higher than 2 mM, the racemization activity of hSR is inhibited.

hSR = target: T2, hSR (Homo sapiens, UniProt Q9GZT4); design: method as in PMID 29899358; conditions: 2 mM ATP, cited from earlier work
T2 construct: 6xHis (C); made in house; host or cells: E. coli BL21 (pET42b-hSR)
T2 sequence (Q9GZT4 1-340): T1 sequence (Q9GZT4 1-340)

Structure (SMILES): COC(=O)CC(=O)OC [DMM, dimethyl malonate]
- D-serine level in plasma, raised (SR [1]): 1.75 times
- D-serine level in the cerebral cortex, raised (SR [1]): 1.43 times
- L-serine level in plasma, raised (SR [1]): 1.55 times
- L-serine level in the cerebral cortex, raised (SR [1]): 1.44 times

Structure (SMILES): Nc1ccccc1N1CCOCC1 [x-0458, 2-morpholinoaniline, reference compound]
- Effect on DAAO [2]: has an inhibitory effect on DAAO
- IC50 (SR [3]): 10.6 µM

Structure (SMILES): Nc1ncnc2c1ncn2[C@@H]1O[C@H](COP(=O)(O)OP(=O)(O)OP(=O)(O)O)[C@@H](O)[C@H]1O [ATP]
- ATP concentration that promotes the most racemization by hSR [4]: 0.25 mM
- Increase in enzyme activation, L-serine dehydration (kcat/KM 8.1 to 253 s^−1 M^−1) (hSR; 200 mM L-serine, 37 °C): 31 fold
- Enhancement of D-serine dehydration (kcat/KM 0.6 to 2.4 s^−1 M^−1) (hSR): 4 fold
- Enhancement of L-serine racemization (kcat/KM 9.2 to 17.5 s^−1 M^−1) (hSR): 1.9 fold
